Several values for one entry are separate records, joined by “and”; a condition that tells them apart may be missing. Identical values can stand only once.
System: LNCaP tumor-bearing mice
Assay: Ex vivo biodistribution in LNCaP tumor-bearing mice
Design: species or system mouse
Details: for Time of peak tumor uptake: post-injection
Description: Imaging, biodistribution and radioligand therapy experiments were performed following previously published procedures using male NOD-scid IL2Rg^null (NSG) or NOD.Cg-Rag1^tm1MomIl2rg^tm1Wjl/SzJ (NRG) mice [10]-[12],[14]-[15]. The experiments were conducted according to the guidelines established by the Canadian Council on Animal Care and approved by Animal Ethics Committee of the University of British Columbia. The mice were briefly sedated by inhalation of 2% isoflurane in oxygen, and implanted subcutaneously with 1×10^7 LNCaP cells behind the left shoulder. The mice were imaged or used in biodistribution studies when the tumor grew to 5-8 mm in diameter over a period of 4-5 weeks.
For biodistribution studies, the mice were injected with the radioligand (2-4 MBq) as described above. For blocking, the mice were co-injected with nonradioactive DCFPyL (0.5 mg). At predetermined time points, the mice were sedated by isoflurane inhalation and euthanized by CO2 inhalation. Blood was withdrawn by cardiac puncture, and organs/tissues of interest were collected, weighed and counted using an automatic gamma counter (Tables S4-S7).

`COc1ccc(CCCC(=O)NCC(=O)N[C@@H](CCCCNC(=O)CN2CCN(CC(=O)[O-])CCN(CC(=O)[O-])CCN(CC(=O)[O-])CC2)C(=O)NC[C@H]2CC[C@H](C(=O)N[C@@H](Cc3c4ccccc4cc4ccccc34)C(=O)NCCCC[C@H](NC(=O)N[C@@H](COCC(=O)O)C(=O)O)C(=O)O)CC2)cc1.[177Lu+3]` [[^177Lu]Lu-HTK04028] showed a Pancreas uptake (24 h post-injection) of 0.15 ± 0.02 %ID/g, a Salivary glands uptake (24 h post-injection) of 0.45 ± 0.10 %ID/g and a Spleen uptake (24 h post-injection) of 0.48 ± 0.14 %ID/g. For the same compound, the Stomach uptake (24 h post-injection) was 0.31 ± 0.10 %ID/g, the Testes uptake (24 h post-injection) was 0.55 ± 0.05 %ID/g and the Thyroid uptake (24 h post-injection) was 0.52 ± 0.08 %ID/g. The Tumor uptake (24 h post-injection) was 30.2 ± 2.74 %ID/g, the “Tumor:Blood uptake ratio” value (24 h post-injection) was 37.2 ± 4.22 and the “Tumor:Kidney uptake ratio” value (24 h post-injection) was 7.06 ± 0.86. The “Tumor:Muscle uptake ratio” value (24 h post-injection) was 275 ± 35.3, the “Tumor:Salivary gland uptake ratio” value (24 h post-injection) was 69.3 ± 15.8 and the Adrenal glands uptake (72 h post-injection) was 0.48 ± 0.17 %ID/g. For the same compound, the Blood uptake (72 h post-injection) was 0.05 ± 0.01 %ID/g, the “Blood:Salivary gland uptake ratio” value (72 h post-injection) was 0.26 ± 0.06 and the Bone uptake (72 h post-injection) was 0.05 ± 0.02 %ID/g. It also gave a Brain uptake (72 h post-injection) of 0.01 ± 0.00 %ID/g, a Fat uptake (72 h post-injection) of 0.06 ± 0.02 %ID/g and a Heart uptake (72 h post-injection) of 0.12 ± 0.03 %ID/g. The Intestines uptake (72 h post-injection) was 0.07 ± 0.03 %ID/g, the Kidneys uptake (72 h post-injection) was 1.77 ± 0.25 %ID/g and the Lacrimal glands uptake (72 h post-injection) was 0.01 ± 0.01 %ID/g. The Liver uptake (72 h post-injection) was 0.22 ± 0.02 %ID/g, the Lungs uptake (72 h post-injection) was 0.18 ± 0.02 %ID/g and the Muscle uptake (72 h post-injection) was 0.03 ± 0.01 %ID/g. For the same compound, the Pancreas uptake (72 h post-injection) was 0.05 ± 0.01 %ID/g, the Salivary glands uptake (72 h post-injection) was 0.19 ± 0.05 %ID/g and the Spleen uptake (72 h post-injection) was 0.49 ± 0.16 %ID/g. It also gave a Stomach uptake (72 h post-injection) of 0.07 ± 0.07 %ID/g, a Testes uptake (72 h post-injection) of 0.31 ± 0.05 %ID/g and a Thyroid uptake (72 h post-injection) of 0.24 ± 0.04 %ID/g. The Tumor uptake (72 h post-injection) was 26.1 ± 7.29 %ID/g, the “Tumor:Blood uptake ratio” value (72 h post-injection) was 550 ± 108 and the “Tumor:Kidney uptake ratio” value (72 h post-injection) was 14.6 ± 2.72. For the same compound, the “Tumor:Muscle uptake ratio” value (72 h post-injection) was 886 ± 181, the “Tumor:Salivary gland uptake ratio” value (72 h post-injection) was 144 ± 35.6 and the Adrenal glands uptake (120 h post-injection) was 0.33 ± 0.05 %ID/g. For the same compound, the Blood uptake (120 h post-injection) was 0.02 ± 0.00 %ID/g, the “Blood:Salivary gland uptake ratio” value (120 h post-injection) was 0.17 ± 0.04 and the Bone uptake (120 h post-injection) was 0.04 ± 0.02 %ID/g. For the same compound, the Fat uptake (120 h post-injection) was 0.03 ± 0.01 %ID/g, the Heart uptake (120 h post-injection) was 0.07 ± 0.01 %ID/g and the Intestines uptake (120 h post-injection) was 0.08 ± 0.05 %ID/g. The Kidneys uptake (120 h post-injection) was 1.16 ± 0.13 %ID/g, the Liver uptake (120 h post-injection) was 0.16 ± 0.02 %ID/g and the Lungs uptake (120 h post-injection) was 0.09 ± 0.01 %ID/g. The Muscle uptake (120 h post-injection) was 0.02 ± 0.00 %ID/g, the Pancreas uptake (120 h post-injection) was 0.03 ± 0.00 %ID/g and the Salivary glands uptake (120 h post-injection) was 0.11 ± 0.03 %ID/g. It also gave a Spleen uptake (120 h post-injection) of 0.54 ± 0.15 %ID/g, a Stomach uptake (120 h post-injection) of 0.10 ± 0.10 %ID/g and a Testes uptake (120 h post-injection) of 0.22 ± 0.01 %ID/g. The Thyroid uptake (120 h post-injection) was 0.13 ± 0.02 %ID/g, the Tumor uptake (120 h post-injection) was ~ 28 %ID/g and the “Tumor:Blood uptake ratio” value (120 h post-injection) was 1714 ± 320. The “Tumor:Kidney uptake ratio” value (120 h post-injection) was 24.9 ± 5.16, the “Tumor:Muscle uptake ratio” value (120 h post-injection) was 1825 ± 415 and the “Tumor:Salivary gland uptake ratio” value (120 h post-injection) was 284 ± 87.9. For the same compound, the Tumor uptake (120 h post-injection, listed as [177Lu]Lu-HTK04028) was 28.4 ± 5.11 %ID/g, the “Peaked average tumor uptake” value (peak over 1-120 h post-injection) was ~ 43 %ID/g and 42.6 %ID/g and the “Time of peak tumor uptake” value was 4 h. For the same compound, the “Time of peak tumor uptake” value (listed as 177Lu-labeled HTK04028) was 4 to 24 h.

Source: PMC10465233, “Lys-urea-Aad, Lys-urea-Cmc and Lys-urea-Cms as potential pharmacophores for the design of PSMA-targeted radioligands to reduce off-target uptake in kidneys and salivary glands” (Theranostics, 2023)
